In assay [1] the test system is RS2-3 minigene (Firefly Luciferase), HEK-293T cells. The experiment in a line: Luciferase induction assay, RS2-3 with splice modulator compounds in HEK-293T cells. As to conditions: Homo sapiens, 18 hours, n of 3, read-out: Mean fold-induction of luciferase (relative to vehicle control). The format is cell-based. The method, then:
(§1) HEK-293T cells were cultured in DMEM+10% FBS, collected after trypsinization, and then dispensed into 96-well plates (cell culture-treated). Each well of the plate was seeded with 1.0×10^5 cells in 100 μL culture medium. After a 1-hour incubation in a tissue culture incubator (5% CO2, 37 degrees C.), plasmid DNA was complexed with a transfection reagent, such as Lipofectamine 3000, and added to respective wells on the plate. Each well received an equivalent of 100 ng of plasmid DNA complexed with 0.15 μL Lipofectamine. Triplicate wells were used for each condition tested in the experiment. The plasmid utilized in the experiment encoded a CMV promoter upstream of the RS2-3 variant that controlled the expression of a Firefly Luciferase gene followed by a SV40 polyadenylation signal. After a 10-minute incubation at room temperature, either DMSO vehicle or specified compound at specified dose was added to the wells of the plate. Plates were then incubated for 18 hours in a tissue culture incubator. Endpoint analysis was performed by adding 100 uL Steady-Luc Firefly Luciferase substrate to each well of the assay plate. After mixing, the liquid contents of each was transferred to a 96-well plate, mixed again for 2 min on an orbital shaker, and incubated at room temperature for 5 min. Finally, the luminescent signal from each well was measured with a with PerkinElmer Envision plate reader. The results of this assay show RS2-3 responded to the majority of the splice modulator compounds used (FIG. 13C) Bars represent mean+/−standard deviation of 3 wells normalized to vehicle controls.

The test system of assay [2] is RS4-1 and variants. In words: Luciferase induction assay, RS4-1 and variants in HEK-293T cells. The format is cell-based, human. As to conditions: 18 hours, FIGS. 15A, 15B. The method, then:
(§2) HEK-293T cells were cultured in DMEM+10% FBS, collected after trypsinization, and dispensed into 96-well plates (cell culture-treated). Each well of the plate was seeded with 1.0×10^5 cells in 100 μL culture medium. After a 1-hour incubation in the tissue culture incubator (5% CO2, 37° C.), plasmid DNA was complexed with a transfection reagent, such as Lipofectamine 3000, and added to respective wells on the plate. Each well received 100 ng of plasmid DNA complexed with 0.15 μL Lipofectamine 3000. The plasmids utilized in the experiment encoded a CMV promoter upstream of the RS4-1 construct and variants that controlled the expression of a Firefly Luciferase gene followed by a SV40 polyadenylation signal. After a 10-minute incubation at room temperature, either DMSO vehicle or 24 A at specified doses was added to the wells of the plate. Plates were then incubated for 18 hours in a tissue culture incubator. Endpoint analysis was performed by adding 100 uL of a Luciferase substrate, such as Steady-Luc Firefly Luciferase substrate, to each well of the assay plate. The liquid contents of each was transferred to a 96-well plate, mixed again for 2 min on an orbital shaker, and incubated at room temperature for 5 min. Finally, the luminescent signal from each well was measured with a plate reader. […]

Assay [3] relates to RS1-10 minigene (Firefly Luciferase), HEK-293T cells. In words: Luciferase induction assay, RS1-10 with splice modulator compounds in HEK-293T cells. The format is cell-based. As to conditions: Homo sapiens, 18 hours, n of 3, read-out: Mean fold-induction of luciferase (relative to vehicle control). The method, then:
as §1, with “of the RS I-10 variant that” for “of the RS2-3 variant that”, “assay show RS1-10 responded to” for “assay show RS2-3 responded to”, “compounds used in a dose responsive manner (FIG. 9C).” for “compounds used (FIG. 13C)”, “manner (FIG. 9C). Bars represent” for “used (FIG. 13C) Bars represent”

Assay [4] concerns RS3-13 minigene (Firefly Luciferase), HEK-293T cells. The experiment in a line: Luciferase induction assay, RS3-13 with splice modulator compounds in HEK-293T cells. The format is cell-based. As to conditions: Homo sapiens, 18 hours, n of 3, read-out: Mean fold-induction of luciferase (relative to vehicle control). How it is done:
as §1, with “RS3-13” for “the RS2-3 variant”, “RS3-13” for “RS2-3”, “14D)” for “13C)”

The subject of assay [5] is RS3-1 and variants. The experiment in a line: Luciferase induction assay, RS3-1 and variants in HEK-293T cells. The format is cell-based, human. The conditions noted are these: 18 hours. How it is done:
as §2, with “RS3-1” for “RS4-1”, “116B” for “24 A”, “μL” for “uL”

The test system of assay [6] is RS1-10. In words: Dose-response profiling assay, RS1-10 Flp-In-293 cell line. The format is cell-based. The conditions noted are these: 18 hours, FIGS. 9D-9F. How it is done: Single-copy insertion of an switch construct and subsequent cell-line generation was performed in Flp-In-293 cells according to manufacturer's protocols. The RS1-10 sequence fused to a Firefly Luciferase gene was cloned into a Flp-In compatible pcDNA5/FRT expression vector with a CMV promoter and BGH polyadenylation signal. Resulting Flp-In cell line carried a single-copy expression cassette (RSwitch-controlled) integrated into the genome. The RS1-10 Flp-In cell line was cultured in DMEM+10% FBS, collected after trypsinization, and then dispensed into 96-well plates (cell culture-treated). Each well of the plate was seeded with 1.0×10^5 cells in 100 μL culture medium. Subsequently, either DMSO vehicle or a splice modulator compound at specified doses was added to the wells of the plate. Triplicate wells were used for each condition tested in the experiment. Plates were then incubated for 18 hours in a tissue culture incubator (5% CO2, 37° C.). Endpoint analysis was performed by adding 100 uL of a Luciferase substrate, such as Steady-Luc Firefly Luciferase substrate, to each well of the assay plate. The liquid contents of each was transferred to a 96-well plate, mixed again for 2 min on an orbital shaker, and incubated at room temperature for 5 min. Finally, the luminescent signal from each well was measured with a plate reader. Each plotted data point on a graph in a figure represents a mean of 3 wells+/−standard deviation normalized to vehicle controls. A nonlinear regression curve fit of the plotted data points was generated in graphing software.

With `Cc1cn2cc(-c3nc(=O)n4cc(N5CCN[C@@H](C)C5)cc(F)c4n3)cc(F)c2n1` [Compound 116B, (S)-9-fluoro-2-(8-fluoro-2-methylimidazo[1,2-a]pyridine-6-yl)-7-(3-methylpiperazin-1-yl)-4H-pyrido[1,2-a][1,3,5]triazin-4-one], the fold induction at 0.1 µM in assay [1] (RS2-3, 100 nM) was 19.8; in assay [3] (RS1-10, 100 nM), 71.8; in assay [4] (RS3-13, 100 nM), 33.4. Further, the fold induction at 1 µM in assay [1] (RS2-3, 1,000 nM) came out at 39.9; in assay [3] (RS1-10, 1,000 nM), 96.6; in assay [4] (RS3-13, 1,000 nM) it was 64.6. Also, the fold-induction of luciferase entry in assay [2] was “increasing fold-induction of luciferase with increasing concentrations”. For the same molecule, in assay [5] (100 nM (FIGS. 14A, 14B), 200 nM or 600 nM (FIG. 14C)), the “fold induction of luciferase compared to vehicle, constructs vs RS3-1” value is reported as “Some of the constructs show higher fold induction of luciferase in the presence of 116B compared to vehicle than RS3-1”. In addition, the “fold induction of luciferase, concentration dependence” value in assay [5] (RS3-1 variants, 200 nM and 600 nM (FIG. 14C)) is “higher fold induction of luciferase with higher concentrations of 116B”.
For the molecule `Cn1cc2cc(-c3ccc(-c4ccc(C5CN(C6CCOCC6)C5)nn4)c(O)c3)ccc2n1` [22 A, 5-(2-methyl-2H-indazol-5-yl)-2-{6-[1-(oxan-4-yl)azetidin-3-yl]pyridazin-3-yl}phenol], the “fold-induction of luciferase signal, dose response” value in assay [6] is recorded as “increase in fold-induction of luciferase signal with increasing concentrations”.
In the case of `CCN1CC(c2ccc(-c3ccc(-c4cc(C)c5nn(C)cc5c4)cc3O)nn2)C1` [34 A, 5-(2,7-dimethyl-2H-indazol-5-yl)-2-[6-(1-ethylazetidin-3-yl)pyridazin-3-yl]phenol], the “fold-induction of luciferase signal, dose response” value in assay [6] is “increase in fold-induction of luciferase signal with increasing concentrations”.
